Results as given in patent publication US10899770B2, “Crystal form of ACP-196 salt and preparation method, pharmaceutical composition, and use thereof” (Hangzhou SoliPharma Co., Ltd., priority 2017, dated 2021).
Where a name gives a salt, the structure may show the parent alone.

Columns and labels:
Solubility test in water = assay type: physicochemical; conditions: for solubility compared with amorphous ACP-196 (ACP-196 of Preparation Example 1): in water, Comparative Example 1; for solubility / Solubility test results: water, 20 mg sample, 25° C. water bath, water added until completely dissolved (not more than 200 mL); for solubility: 25 °C, thermodynamic from solid
Protocol: Solubility test: took 20 mg ACP-196 of Preparation Example 1, 20 mg ACP-196 malate Form 1 of the invention, 20 mg ACP-196 hemifumarate Form 1 of the invention, 20 mg ACP-196 maleate Form 1 of the invention, 20 mg ACP-196 phosphate Form 1 of the invention and 20 mg ACP-196 sulfate Form 1 of the invention, then placed in the beaker respectively added 1.0 mL water, stirred for 1 to 2 minutes under the condition of 25° C. water bath, observed and if not totally dissolved, added water (not more than 200 mL in total) until it's completely dissolved.

[1] = Isothermal sorption (dynamic vapor sorption), weight change with relative humidity; assay type: physicochemical; conditions: for hygroscopicity compared with amorphous ACP-196: 30 to 80% RH; for weight change (isothermal sorption plot): between 30% and 80% relative humidity
Protocol: Dynamic vapor sorption data and isothermal sorption data were collected on TA Instruments Q5000 TGA. Method: A sample of 1 to 10 mg was placed in a platinum pan; the weight change of the sample during the change in relative humidity from 0% to 80% to 0% was measured.

| Compound | solubility compared with amorphous ACP-196 (ACP-196 of Preparation Example 1) (Solubility test in water) | solubility (Solubility test in water) [µg/mL] | hygroscopicity compared with amorphous ACP-196 [1] | Solubility test results (Solubility test in water) | weight change (isothermal sorption plot) [1] [%] | weight change (isothermal sorption plot) ([1]; listed as amorphous ACP-196) [%] |
| --- | --- | --- | --- | --- | --- | --- |
| CC#CC(=O)N1CCC[C@H]1c1nc(-c2ccc(C(=O)Nc3ccccn3)cc2)c2c(N)nccn12.O=C(O)/C=C/C(=O)O [ACP-196 hemifumarate Form 1] | higher solubility | 910 | less hygroscopic | – | – | – |
| CC#CC(=O)N1CCC[C@H]1c1nc(-c2ccc(C(=O)Nc3ccccn3)cc2)c2c(N)nccn12 [ACP-196 malate Form 1] | higher solubility | – | – | 1.43 mg/mL | – | – |
| CC#CC(=O)N1CCC[C@H]1c1nc(-c2ccc(C(=O)Nc3ccccn3)cc2)c2c(N)nccn12.O=C(O)/C=C\C(=O)O [ACP-196 maleate Form 1] | higher solubility | 1330 | less hygroscopic | – | – | – |
| CC#CC(=O)N1CCC[C@H]1c1nc(-c2ccc(C(=O)Nc3ccccn3)cc2)c2c(N)nccn12 [ACP-196 phosphate Form 1] | higher solubility | – | less hygroscopic | – | – | – |
| CC#CC(=O)N1CCC[C@H]1c1nc(-c2ccc(C(=O)Nc3ccccn3)cc2)c2c(N)nccn12 [ACP-196 sulfate Form 1] | higher solubility | – | – | – | – | – |
| CC#CC(=O)N1CCC[C@H]1c1nc(-c2ccc(C(=O)Nc3ccccn3)cc2)c2c(N)nccn12 [ACP-196] | – | – | – | Less than 0.1 mg/mL | 5.5 | 5.5 |
